Key:
PKR R510Q = PKR R510Q (Homo sapiens, UniProt P30613, R510Q); assay: PKR Mutant Assay, AC50 against PKR R510Q; format: biochemical; conditions: mutant PKR R510Q enzyme
In short: (§1)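 Human PKR (WT or mutant, 80-400 ng/well) in 50 mM Tris pH 7.5, 100 mM KCl, 5 mM MgCl2, 1 mM DTT, 0.03% BSA with PEP 0.1-0.5 mM, NADH 180 uM and LDH, preincubated 60 min at room temperature with compound (11-point 3-fold series from 100 μM final, 1% DMSO). ADP 0.22-1.65 mM started reaction; A340 followed.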

PKR R532W = PKR R532W (Homo sapiens, UniProt P30613, R532W); assay: PKR Mutant Assay, AC50 against PKR R532W; format: biochemical; conditions: mutant PKR R532W enzyme
In short: as §1

PKR WT [1] = target: T1, PKR WT (Homo sapiens, UniProt P30613); assay: PKR WT enzymatic AC50 assay; format: biochemical; conditions: wild type PKR
In short: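 Steps: compound added to wells, then reaction mix lacking ADP; 60 min room-temperature hold; ADP (0.22-1.65 mM) added to start; A340 monitored at room temperature via PEP/LDH/NADH coupling. Top final compound concentration 100 μM, 3-fold dilutions over 11 points.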

PKR WT [2] = target: T1, PKR WT; assay: PKR WT cell based AC50 assay; conditions: wild type PKR

Chain of PKR R510Q (P30613 whole entry R510Q): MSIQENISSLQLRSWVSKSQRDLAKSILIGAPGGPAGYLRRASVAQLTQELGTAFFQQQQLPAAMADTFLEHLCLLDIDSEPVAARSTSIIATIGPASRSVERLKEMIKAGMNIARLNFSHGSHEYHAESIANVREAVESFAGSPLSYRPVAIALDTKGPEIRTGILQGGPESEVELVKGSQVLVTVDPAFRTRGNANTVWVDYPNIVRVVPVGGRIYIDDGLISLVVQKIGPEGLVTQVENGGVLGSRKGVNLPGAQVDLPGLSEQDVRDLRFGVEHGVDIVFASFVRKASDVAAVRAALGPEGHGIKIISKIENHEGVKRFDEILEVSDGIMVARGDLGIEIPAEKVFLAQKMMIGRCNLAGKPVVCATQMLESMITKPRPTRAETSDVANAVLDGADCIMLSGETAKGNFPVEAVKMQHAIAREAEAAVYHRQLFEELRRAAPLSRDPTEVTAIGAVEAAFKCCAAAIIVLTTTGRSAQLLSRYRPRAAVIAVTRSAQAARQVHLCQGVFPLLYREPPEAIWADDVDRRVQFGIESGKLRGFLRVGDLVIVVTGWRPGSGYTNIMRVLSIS
Chain of PKR R532W (P30613 whole entry R532W): as the sequence (P30613 whole entry R510Q) above, with Q510R, R532W counted along it
T1 sequence (P30613 whole entry): as the sequence (P30613 whole entry R510Q) above, with Q510R counted along it

| AC50 (PKR R510Q) [nM] | AC50 (PKR R532W) [nM] | AC50 (PKR WT [1]) [nM] | AC50 (PKR WT [2]) [nM] | Compound |
| --- | --- | --- | --- | --- |
| 101 to 1000 | < 100 | < 100 | < 100 | O=C(c1ccc(NS(=O)(=O)c2cccc3cccnc23)cc1)N1CCC(O)(c2cccc(C(F)(F)F)n2)CC1 [Compound 174, N-[4-[4-hydroxy-4-[6-(trifluoromethyl)pyridin-2-yl]piperidine-1-carbonyl]phenyl]quinoline-8-sulfonamide] |
| 101 to 1000 | < 100 | < 100 | < 100 | Cc1cc(C(=O)N2CCC(O)(c3cccc(F)c3F)CC2)ccc1NS(=O)(=O)c1cccc2nccnc12 [Compound 175, N-(4-(4-(2,3-difluorophenyl)-4-hydroxypiperidine-1-carbonyl)-2-methylphenyl)quinoxaline-5-sulfonamide] |
| 101 to 1000 | < 100 | < 100 | < 100 | O=C(c1ccc(NS(=O)(=O)c2cccc3cccnc23)cc1)N1CCC(O)(CC2CC2(F)F)CC1 (stereo not drawn) [Compound 176, N-(4-(4-((2,2-difluorocyclopropyl)methyl)-4-hydroxypiperidine-1-carbonyl)phenyl)quinoline-8-sulfonamide] |
| 101 to 1000 | < 100 | < 100 | < 100 | O=C(c1ccc(NS(=O)(=O)c2cccc3scnc23)cc1)N1CCC(O)(c2cccc(F)c2F)CC1 [Compound 178, N-(4-(4-(2,3-difluorophenyl)-4-hydroxypiperidine-1-carbonyl)phenyl)benzo[d]thiazole-4-sulfonamide] |
| 101 to 1000 | < 100 | < 100 | < 100 | O=C(c1ccc(NS(=O)(=O)c2ccc(F)c3cccnc23)cc1)N1CCC(O)(c2ccccc2Cl)CC1 [Compound 179, N-(4-(4-(2-chlorophenyl)-4-hydroxypiperidine-1-carbonyl)phenyl)-5-fluoroquinoline-8-sulfonamide] |
| 101 to 1000 | < 100 | < 100 | < 100 | O=C(c1ccc(NS(=O)(=O)c2cccc3cccnc23)cc1)N1CCC(O)(c2cnsc2)CC1 [Compound 180] |
| 101 to 1000 | < 100 | < 100 | < 100 | CCCC1(O)CCN(C(=O)c2ccc(NS(=O)(=O)c3cccc4cccnc34)cc2)CC1 [Compound 183, N-(4-(4-hydroxy-4-propylpiperidine-1-carbonyl)phenyl)quinoline-8-sulfonamide] |
| 101 to 1000 | < 100 | < 100 | 101 to 1000 | COc1ccccc1C1(O)CCN(C(=O)c2ccc(NS(=O)(=O)c3cccc4cccnc34)cc2)CC1 [Compound 184, N-(4-(4-hydroxy-4-(2-methoxyphenyl)piperidine-1-carbonyl)phenyl)quinoline-8-sulfonamide] |
| 101 to 1000 | < 100 | < 100 | 101 to 1000 | O=C(c1ccc(NS(=O)(=O)c2cccc3cccnc23)cc1)N1CCC(O)(Cc2cccnc2)CC1 [Compound 185, N-(4-(4-hydroxy-4-(pyridin-3-ylmethyl)piperidine-1-carbonyl)phenyl)quinoline-8-sulfonamide] |
| 101 to 1000 | < 100 | < 100 | 101 to 1000 | O=C(c1ccc(NS(=O)(=O)c2cccc3ccoc23)cc1)N1CCC(O)(c2ccccc2Cl)CC1 [Compound 186, N-(4-(4-(2-chlorophenyl)-4-hydroxypiperidine-1-carbonyl)phenyl)benzofuran-7-sulfonamide] |
| < 100 | < 100 | < 100 | < 100 | CC(C)(C)CC1(O)CCN(C(=O)c2ccc(NS(=O)(=O)c3ccc(F)c4cccnc34)cc2)CC1 [Compound 187, 5-fluoro-N-(4-(4-hydroxy-4-neopentylpiperidine-1-carbonyl)phenyl)quinoline-8-sulfonamide] |
| 101 to 1000 | < 100 | < 100 | 101 to 1000 | O=C(c1ccc(NS(=O)(=O)c2cccc3cccnc23)cc1)N1CCC(O)(Cc2ccccn2)CC1 [Compound 189, N-(4-(4-hydroxy-4-(pyridin-2-ylmethyl)piperidine-1-carbonyl)phenyl)quinoline-8-sulfonamide] |
| 101 to 1000 | < 100 | < 100 | 101 to 1000 | Cc1ccc(C2(O)CCN(C(=O)c3ccc(NS(=O)(=O)c4cccc5cccnc45)cc3)CC2)c(Cl)c1 [Compound 190, N-[4-[4-(2-chloro-4-methyl-phenyl)-4-hydroxy-piperidine-1-carbonyl]phenyl]quinoline-8-sulfonamide] |
| 101 to 1000 | < 100 | < 100 | < 100 | O=C(c1ccc(NS(=O)(=O)c2cccc3cccnc23)cc1)N1CCC(O)(c2ncccc2Cl)CC1 [Compound 191, N-(4-(4-(3-chloropyridin-2-yl)-4-hydroxypiperidine-1-carbonyl)phenyl)quinoline-8-sulfonamide] |
| 1010 to 10000 | < 100 | < 100 | < 100 | CS(=O)(=O)c1ccccc1C1(O)CCN(C(=O)c2ccc(NS(=O)(=O)c3cccc4cccnc34)cc2)CC1 [Compound 192, N-[4-[4-hydroxy-4-(2-methylsulfonylphenyl)piperidine-1-carbonyl]phenyl]quinoline-8-sulfonamide] |
| 101 to 1000 | < 100 | < 100 | < 100 | O=C(c1ccc(NS(=O)(=O)c2cccc3cccnc23)cc1F)N1CCC(O)(c2ccccc2Cl)CC1 [Compound 193, N-(4-(4-(2-chlorophenyl)-4-hydroxypiperidine-1-carbonyl)-3-fluorophenyl)quinoline-8-sulfonamide] |
| 101 to 1000 | < 100 | < 100 | < 100 | O=C(c1ccc(NS(=O)(=O)c2cccc3cccnc23)cc1)N1CCC(O)(c2ccc(F)cc2)CC1 [Compound 194, N-(4-(4-(4-fluorophenyl)-4-hydroxypiperidine-1-carbonyl)phenyl)quinoline-8-sulfonamide] |
| 101 to 1000 | < 100 | < 100 | < 100 | CC(C)(C)C1(O)CCN(C(=O)c2ccc(NS(=O)(=O)c3cccc4cccnc34)cc2)CC1 [Compound 195, N-(4-(4-(tert-butyl)-4-hydroxypiperidine-1-carbonyl)phenyl)quinoline-8-sulfonamide] |
| 101 to 1000 | < 100 | < 100 | 101 to 1000 | O=C(c1ccc(NS(=O)(=O)c2cc(F)cc3cccnc23)cc1)N1CCC(O)(c2ccccc2)CC1 [Compound 196, 6-fluoro-N-(4-(4-hydroxy-4-phenylpiperidine-1-carbonyl)phenyl)quinoline-8-sulfonamide] |
| 101 to 1000 | < 100 | < 100 | 101 to 1000 | O=C(c1ccc(NS(=O)(=O)c2cccc3ccccc23)cc1)N1CCC(O)(c2ccccc2Cl)CC1 [Compound 197, N-(4-(4-(2-chlorophenyl)-4-hydroxypiperidine-1-carbonyl)phenyl)naphthalene-1-sulfonamide] |
| 101 to 1000 | < 100 | < 100 | < 100 | O=C(c1ccc(NS(=O)(=O)c2cccc3cccnc23)cc1)N1CCC(O)(c2cccc(C(F)(F)F)c2)CC1 [Compound 199, N-(4-(4-hydroxy-4-(3-(trifluoromethyl)phenyl)piperidine-1-carbonyl)phenyl)quinoline-8-sulfonamide] |
